# Results from patent US20230085307A1, “PYRIDAZINONE COMPOUND AND HERBICIDE” (NISSAN CHEMICAL CORPORATION, priority 2019, published 2023).
# Experiments:
# blackgrass [1] = assay: Test Example 4: herbicidal effect by soil treatment (Table 19, symbol J); type: in vivo, blackgrass (Alopecurus myosuroides); conditions: amount of applied herbicide 320 g/ha
# In short: (§1)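 In this soil treatment, the formulated compound reached the seeds only through the soil: seeds were buried about 1.5 cm deep in sterilized diluvial soil, then the diluted emulsion was sprayed over the surface. After three weeks at 25° C. to 30° C. in a greenhouse, effects were graded on criteria from an earlier test.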
# lambsquarters [2] = assay: Test Example 4: herbicidal effect by soil treatment (Table 19, symbol O); type: in vivo, lambsquarters (Chenopodium album); conditions: amount of applied herbicide 320 g/ha
# In short: as §1
# chickweed [3] = assay: Test Example 5: herbicidal effect by foliage application, plastic box (Table 20, symbol P); type: in vivo, common chickweed (Stellaria media); conditions: 320 g/ha, foliage application after 14-day growth, evaluated three weeks after application
# In short: (§2)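 Plants were sown into sterilized diluvial soil under about 1.5 cm cover and kept in a greenhouse at 25° C. to 30° C. Fourteen days on, foliage received an even spray of the diluted emulsion. Herbicidal or crop effect was judged three weeks afterwards.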
# barnyard grass [4] = assay: Test Example 5: herbicidal effect by foliage application, plastic box (Table 20, symbol H); type: in vivo, barnyard grass (Echinochloa crus-galli); conditions: 320 g/ha, foliage application after 14-day growth, evaluated three weeks after application
# In short: as §2
# southern crabgrass [5] = assay: Test Example 5: herbicidal effect by foliage application, plastic box (Table 20, symbol F); type: in vivo, southern crabgrass (Digitaria ciliaris); conditions: 320 g/ha, foliage application after 14-day growth, evaluated three weeks after application
# In short: as §2
# persian speedwell [6] = assay: Test Example 5: herbicidal effect by foliage application, plastic box (Table 20, symbol R); type: in vivo, Persian speedwell (Veronica persica); conditions: 320 g/ha, foliage application after 14-day growth, evaluated three weeks after application
# In short: as §2
# redroot pigweed [7] = assay: Test Example 5: herbicidal effect by foliage application, plastic box (Table 20, symbol N); type: in vivo, redroot pigweed (Amaranthus retroflexus); conditions: 320 g/ha, foliage application after 14-day growth, evaluated three weeks after application
# In short: as §2
# green foxtail [8] = assay: Test Example 5: herbicidal effect by foliage application, plastic box (Table 20, symbol G); type: in vivo, green foxtail (Setaria viridis); conditions: 320 g/ha, foliage application after 14-day growth, evaluated three weeks after application
# In short: as §2
# wild oat [9] = assay: Test Example 4: herbicidal effect by soil treatment (Table 19, symbol I); type: in vivo, wild oat (Avena fatua); conditions: amount of applied herbicide 320 g/ha
# In short: as §1
# chickweed [10] = assay: Test Example 4: herbicidal effect by soil treatment (Table 19, symbol P); type: in vivo, common chickweed (Stellaria media); conditions: amount of applied herbicide 320 g/ha
# In short: as §1
# velvetleaf [11] = assay: Test Example 5: herbicidal effect by foliage application, plastic box (Table 20, symbol M); type: in vivo, velvetleaf (Abutilon theophrasti); conditions: 320 g/ha, foliage application after 14-day growth, evaluated three weeks after application
# In short: as §2
# persian speedwell [12] = assay: Test Example 4: herbicidal effect by soil treatment (Table 19, symbol R); type: in vivo, Persian speedwell (Veronica persica); conditions: amount of applied herbicide 320 g/ha
# In short: as §1
# southern crabgrass [13] = assay: Test Example 4: herbicidal effect by soil treatment (Table 19, symbol F); type: in vivo, southern crabgrass (Digitaria ciliaris); conditions: amount of applied herbicide 320 g/ha
# In short: as §1
# green foxtail [14] = assay: Test Example 4: herbicidal effect by soil treatment (Table 19, symbol G); type: in vivo, green foxtail (Setaria viridis); conditions: amount of applied herbicide 320 g/ha
# In short: as §1
# Italian ryegrass [15] = assay: Test Example 4: herbicidal effect by soil treatment (Table 19, symbol K); type: in vivo, Italian ryegrass (Lolium multiflorum); conditions: amount of applied herbicide 320 g/ha
# In short: as §1
# Italian ryegrass [16] = assay: Test Example 5: herbicidal effect by foliage application, plastic box (Table 20, symbol K); type: in vivo, Italian ryegrass (Lolium multiflorum); conditions: 320 g/ha, foliage application after 14-day growth, evaluated three weeks after application
# In short: as §2
# wild oat [17] = assay: Test Example 5: herbicidal effect by foliage application, plastic box (Table 20, symbol I); type: in vivo, wild oat (Avena fatua); conditions: 320 g/ha, foliage application after 14-day growth, evaluated three weeks after application
# In short: as §2
# barnyard grass [18] = assay: Test Example 3: herbicidal effect by foliage application, Wagner pot (Table 18, symbol H); type: in vivo, barnyard grass (Echinochloa crus-galli); conditions: 320 g/ha
# In short: (§3)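 Plants were sown in alluvial soil held under 0.1–0.5 cm standing water and grown 14 days in a greenhouse at 25–30 °C. An emulsifiable formulation, water-diluted to the set dose, was then sprayed onto the foliage, and effects were scored three weeks later using previously defined criteria.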
# velvetleaf [19] = assay: Test Example 4: herbicidal effect by soil treatment (Table 19, symbol M); type: in vivo, velvetleaf (Abutilon theophrasti); conditions: amount of applied herbicide 320 g/ha
# In short: as §1
# windgrass [20] = assay: Test Example 4: herbicidal effect by soil treatment (Table 19, symbol L); type: in vivo, windgrass (Apera spica-venti); conditions: amount of applied herbicide 320 g/ha
# In short: as §1
# redroot pigweed [21] = assay: Test Example 4: herbicidal effect by soil treatment (Table 19, symbol N); type: in vivo, redroot pigweed (Amaranthus retroflexus); conditions: amount of applied herbicide 320 g/ha
# In short: as §1
# lambsquarters [22] = assay: Test Example 5: herbicidal effect by foliage application, plastic box (Table 20, symbol O); type: in vivo, lambsquarters (Chenopodium album); conditions: 320 g/ha, foliage application after 14-day growth, evaluated three weeks after application
# In short: as §2
# blackgrass [23] = assay: Test Example 5: herbicidal effect by foliage application, plastic box (Table 20, symbol J); type: in vivo, blackgrass (Alopecurus myosuroides); conditions: 320 g/ha, foliage application after 14-day growth, evaluated three weeks after application
# In short: as §2
# barnyard grass [24] = assay: Test Example 4: herbicidal effect by soil treatment (Table 19, symbol H); type: in vivo, barnyard grass (Echinochloa crus-galli); conditions: amount of applied herbicide 320 g/ha
# In short: as §1
# rice flat sedge = assay: Test Example 3: herbicidal effect by foliage application, Wagner pot (Table 18, symbol E); type: in vivo, rice flat sedge (Cyperus iria); conditions: 320 g/ha
# In short: as §3
# Chinese sprangletop = assay: Test Example 3: herbicidal effect by foliage application, Wagner pot (Table 18, symbol D); type: in vivo, chinese sprangletop (Leptochloa chinensis); conditions: 320 g/ha
# In short: as §3
# windgrass [25] = assay: Test Example 5: herbicidal effect by foliage application, plastic box (Table 20, symbol L); type: in vivo, windgrass (Apera spica-venti); conditions: 320 g/ha, foliage application after 14-day growth, evaluated three weeks after application
# In short: as §2
Structure (SMILES),"Herbicidal effect by soil treatment, J: blackgrass (blackgrass [1])","Herbicidal effect by soil treatment, O: lambsquarters (lambsquarters [2])",herbicidal effect on P: chickweed (evaluation grade 0-5) (chickweed [3]),herbicidal effect on H: barnyard grass (evaluation grade 0-5) (barnyard grass [4]),herbicidal effect on F: southern crabgrass (evaluation grade 0-5) (southern crabgrass [5]),herbicidal effect on R: persian speedwell (evaluation grade 0-5) (persian speedwell [6]),herbicidal effect on N: redroot pigweed (evaluation grade 0-5) (redroot pigweed [7]),herbicidal effect on G: green foxtail (evaluation grade 0-5) (green foxtail [8]),"Herbicidal effect by soil treatment, I: wild oat (wild oat [9])","Herbicidal effect by soil treatment, P: chickweed (chickweed [10])",herbicidal effect on M: velvetleaf (evaluation grade 0-5) (velvetleaf [11]),"Herbicidal effect by soil treatment, R: persian speedwell (persian speedwell [12])","Herbicidal effect by soil treatment, F: southern crabgrass (southern crabgrass [13])","Herbicidal effect by soil treatment, G: green foxtail (green foxtail [14])","Herbicidal effect by soil treatment, K: Italian ryegrass (Italian ryegrass [15])",herbicidal effect on K: Italian ryegrass (evaluation grade 0-5) (Italian ryegrass [16]),herbicidal effect on I: wild oat (evaluation grade 0-5) (wild oat [17]),herbicidal effect on barnyard grass (H) (barnyard grass [18]),"Herbicidal effect by soil treatment, M: velvetleaf (velvetleaf [19])","Herbicidal effect by soil treatment, L: windgrass (windgrass [20])",other results
CCCC(=O)Oc1c(C)nn(C)c(=O)c1-c1c(-c2ccc(F)cc2)sc2c(F)cccc12 [4-002],0 (Herbicidal rate of 5% or less (almost no effect)),3 (Herbicidal rate of 40% or more and less than 70%),5 (Herbicidal rate of 90% or more (almost completely withered)),4 (Herbicidal rate of 70% or more and less than 90%),0 (Herbicidal rate of 5% or less (almost no effect)),4 (Herbicidal rate of 70% or more and less than 90%),5 (Herbicidal rate of 90% or more (almost completely withered)),4 (Herbicidal rate of 70% or more and less than 90%),0 (Herbicidal rate of 5% or less (almost no effect)),0 (Herbicidal rate of 5% or less (almost no effect)),5 (Herbicidal rate of 90% or more (almost completely withered)),0 (Herbicidal rate of 5% or less (almost no effect)),0 (Herbicidal rate of 5% or less (almost no effect)),2 (Herbicidal rate of 20% or more and less than 40%),0 (Herbicidal rate of 5% or less (almost no effect)),3 (Herbicidal rate of 40% or more and less than 70%),0 (Herbicidal rate of 5% or less (almost no effect)),5 (Herbicidal rate of 90% or more (almost completely withered)),2 (Herbicidal rate of 20% or more and less than 40%),0 (Herbicidal rate of 5% or less (almost no effect)),"Herbicidal effect by soil treatment, N: redroot pigweed (redroot pigweed [21]): 3 (Herbicidal rate of 40% or more and less than 70%); herbicidal effect on O: lambsquarters (evaluation grade 0-5) (lambsquarters [22]): 3 (Herbicidal rate of 40% or more and less than 70%); herbicidal effect on J: blackgrass (evaluation grade 0-5) (blackgrass [23]): 1 (Herbicidal rate of 5% or more and less than 20%); Herbicidal effect by soil treatment, H: barnyard grass (barnyard grass [24]): 4 (Herbicidal rate of 70% or more and less than 90%); herbicidal effect on rice flat sedge (E) (rice flat sedge): 5 (Herbicidal rate of 90% or more (almost completely withered)); herbicidal effect on Chinese sprangletop (D) (Chinese sprangletop): 2 (Herbicidal rate of 20% or more and less than 40%); herbicidal effect on L: windgrass (evaluation grade 0-5) (windgrass [25]): 0 (Herbicidal rate of 5% or less (almost no effect))"
COc1cc(F)ccc1-c1sc2c(F)cccc2c1-c1c(O)c(C)nn(C)c1=O [4-011],0 (Herbicidal rate of 5% or less (almost no effect)),3 (Herbicidal rate of 40% or more and less than 70%),5 (Herbicidal rate of 90% or more (almost completely withered)),3 (Herbicidal rate of 40% or more and less than 70%),2 (Herbicidal rate of 20% or more and less than 40%),5 (Herbicidal rate of 90% or more (almost completely withered)),3 (Herbicidal rate of 40% or more and less than 70%),5 (Herbicidal rate of 90% or more (almost completely withered)),0 (Herbicidal rate of 5% or less (almost no effect)),3 (Herbicidal rate of 40% or more and less than 70%),3 (Herbicidal rate of 40% or more and less than 70%),0 (Herbicidal rate of 5% or less (almost no effect)),0 (Herbicidal rate of 5% or less (almost no effect)),3 (Herbicidal rate of 40% or more and less than 70%),0 (Herbicidal rate of 5% or less (almost no effect)),3 (Herbicidal rate of 40% or more and less than 70%),0 (Herbicidal rate of 5% or less (almost no effect)),4 (Herbicidal rate of 70% or more and less than 90%),0 (Herbicidal rate of 5% or less (almost no effect)),0 (Herbicidal rate of 5% or less (almost no effect)),"Herbicidal effect by soil treatment, N: redroot pigweed (redroot pigweed [21]): 2 (Herbicidal rate of 20% or more and less than 40%); herbicidal effect on O: lambsquarters (evaluation grade 0-5) (lambsquarters [22]): 3 (Herbicidal rate of 40% or more and less than 70%); herbicidal effect on J: blackgrass (evaluation grade 0-5) (blackgrass [23]): 3 (Herbicidal rate of 40% or more and less than 70%); Herbicidal effect by soil treatment, H: barnyard grass (barnyard grass [24]): 3 (Herbicidal rate of 40% or more and less than 70%); herbicidal effect on rice flat sedge (E) (rice flat sedge): 5 (Herbicidal rate of 90% or more (almost completely withered)); herbicidal effect on Chinese sprangletop (D) (Chinese sprangletop): 3 (Herbicidal rate of 40% or more and less than 70%); herbicidal effect on L: windgrass (evaluation grade 0-5) (windgrass [25]): 3 (Herbicidal rate of 40% or more and less than 70%)"
